Earlier results in patent EP3850074B1, “BENEFIT AGENT DELIVERY PARTICLES” (Unilever Global IP Ltd, priority 2018, dated 2020).

Details: at 25°C and at atmospheric pressure

## Nc1nc(N)nc(N)n1 [melamine, 2,4,6-triamino-1,3,5-triazine]
  solubility in distilled water: about 0.3 g/L
